From patent publication US5700640A, “Inducers of gamma globin gene expression and screening assays therefor” (priority 1994, dated 1997)

Assays:
[1] = system: gamma globin-luciferase reporter constructs in K562 cells; experiment: BA inducibility of different gamma globin-reporter gene constructs in transiently transfected K562 cells; format: cell-based, human
From the text: The entire human globin gene locus, spanning approximately 150 kilobases, is shown schematically in FIG. 1. Depicted are the different globin structural genes and cis-active regulatory elements (e.g., promoters and enhancers). To construct gamma globin reporter gene plasmids, nucleic acid fragments comprising nucleotide sequences normally flanking (i.e., at either the 5' or 3' end of) the gamma globin gene were obtained and subcloned into a plasmid encoding a reporter gene. The human gamma globin 5' promoter fragment consisted of nucleotides -1200 to +30, relative to the start site of transcription (nucleotide numbers 38205 to 39435 of the human gamma globin gene in the GENEMBL database, accession number J00179). The promoter fragment was obtained from human genomic DNA by polymerase chain reaction (PCR) amplification using oligonucleotide primers of the sequences: […]
These constructs are illustrated schematically in FIG. 2.
In a first series of experiments, K562 cells transiently transfected with the different gamma globin-reporter genes described in Example 1 were treated with butyric acid (BA). After treatment, the level of reporter gene activity (i.e., luciferase activity) in the treated cells was compared to determine the BA-inducibility of the different reporter gene constructs. The results are shown graphically in FIG. 2, which illustrates the fold induction of luciferase activity by BA relative to untreated cells. […] All other constructs tested (including gammaSV40, beta3'PE, HS2/3gamma3'PE and gamma) were at least 2 fold less responsive to BA treatment.
To test whether the increased sensitivity of the gamma globin promoter to BA was due to a specific property of the globin 3' Proximal Enhancer or if this was a property of transcriptional enhancers in general, two copies of the 72 bp repeat of the SV40 enhancer (isolated by PCR from the simian virus 40 genome) were substituted for the 3' Proximal Enhancer in the context of the gamma globin promoter (construct gammaSV40). […] This may be due to the unnatural proximity of these enhancer sequences to the gamma globin promoter in this construct. Normally, these sequence reside over 30 kB upstream of the promoter and one function of BA in vivo may be to promote interaction between the chromosomal LCR sequences and the gamma globin promoter. Artificially positioning the LCR components near the gamma globin promoter may have in fact complemented the effect of BA. Thus, empirically, it appears that maintaining the cis-active elements of the gamma globin locus in their natural context is important for developing the most sensitive reporter gene assay system for detecting gone induction by short chain fatty acids such as BA.

[2] = system: gamma globin mRNA; experiment: Northern hybridization of gamma globin mRNA in treated K562 cells; format: cell-based, human
Method: Total RNA was prepared by the method of McDonald as described in Sambrook et al., (1989) Molecular Cloning: A Laboratory Manual, 2nd Edition, Cold Spring Harbor Laboratory Press. 10 μg total cellular RNA was electrophoresed through agarose gels containing 3.3% formaldehyde. The electrophoresed RNA was then transferred to nitrocellulose filters by standard methods. Each sample was hybridized to specific probes for gamma globin mRNA, mRNA encoding the erythroid specific transcription factor GATA-1 and 28S ribosomal RNA (which was used for standardization). The gamma globin and GATA-1 probes were cDNA probes, which were labeled with ^32 p by random priming reactions (Promega Biotech Inc.). The 28S ribosomal RNA probe was an oligonucleotide having the sequence 5' […] 3' (SEQ ID NO: 3), which was labeled by 5' end labeling using T4 polynucleotide kinase (New England Biolabs). Nucleotide probes were hybridized to the RNA nitrocellulose filters according to standard techniques. After hybridization, radioactive signals on the nitrocellulose filters were directly quantified using a BioRad GS-250 Molecular Imager. mRNA hybridization intensities were normalized to the amount of 28S ribosomal RNA present for each sample.

[3] = in vitro; conditions: human, k562 cells
Method: (§1) To normalize luciferase units to the number of viable cells, parallel cell viability assays were performed using 3-(4,5-dimethylthiazol-2-yl)-2,5-diphenyltetrazolium bromide (MTT) (Vistica, D. T. et al. (1991) Cancer Res. 51:2515-2520). Transfected K562 cells were plated in 96 well dishes at a density of 2×10^4 and 2×10^3 cells per 100 μl per well. 24 hours later, the cells were treated with test compounds (at a final concentration of 5 mM). At 24, 50, 74 or 122 hours after treatment, 50 μl of 3 mg/ml MTT in PBS was added to each well. The 96 well plate was then incubated at 37° C. for 4 to 5 hours. The formazan derivatives formed from tetrazolium by viable cells were solubilized by the addition of 50 μl/well 25% SDS, pH 3, overnight at 37° C. The plates were than read at a wavelength of 550 nm.

[4] = system: K562 cells; experiment: in vitro
Method: as §1

[5] = system: gamma globin promoter deletion-luciferase constructs in K562 cells; experiment: BA inducibility of gamma globin promoter deletion constructs; format: cell-based, human; conditions: 5 mM BA, 24 hours
From the text: Luciferase reporter gene constructs containing serial deletions in the 5' end of the gamma globin promoter were made by cloning truncated promoter DNA fragments upstream (i.e., 5') of the luciferase gene in pGL2. The gamma globin 3' Proximal Enhancer element (3'PE) was cloned downstream (i.e., 3') of the luciferase reporter gene in these constructs. Truncated gamma globin promoter DNA fragments were generated by PCR using as the upstream primer oligonucleotides having the sequences:
To create a construct with 5' terminus at position -140, the -577 reporter gene construct was digested with NcoI and KpnI, the fragment containing the deleted promoter and reporter gene (i.e., the large restriction fragment) was treated with T4 DNA polymerase to fill-in the restriction sites and the fragment was treated with T4 DNA ligase to religate the construct.
To determine the inducibility of each deletion construct by butyric acid, the constructs were introduced into K562 cells by electropotation as described above. Forty-eight hours after transfection, the cells were treated with 5 mMBA. Luciferase activity was measured 24 hours later. The inducibility of the deletion constructs is illustrated in FIGS. 16 and 17.

[6] = Blau et al. 1993; cited from earlier work

## CCCC(=O)O [BA, butyric acid]
[1]; HS2/3gamma3'PE vs gamma3'PE
  effect of LCR sequences on BA sensitivity of gamma3'PE construct: reduce the sensitivity of the gamma3'PE construct to BA
[1]; beta globin promoter with 3'Proximal Enhancer
  BA induction of beta3'PE construct: not inducible
[1]; gamma3'PE, fold induction relative to untreated cells
  BA responsiveness of gamma3'PE construct: most responsive to BA
[1]; gamma globin promoter without 3' Proximal Enhancer
  BA induction of gamma construct: inducible, albeit to a lesser extent than when in the context of the 3' Proximal Enhancer
[1]; gammaSV40
  SV40 enhancer effect on BA responsiveness of gamma globin promoter: not effective in augmenting the responsiveness of the gamma globin promoter to BA
[1]; gammaSV40, beta3'PE, HS2/3gamma3'PE and gamma, transient transfection
  fold lower BA responsiveness of other constructs than gamma3'PE: at least 2 fold
[1]; luciferase gene only or fused to 3'Proximal Enhancer
  BA induction of promoterless constructs: not induced by BA
[2]; Homo sapiens, K562, 96 h, read-out: Fold Induction, gamma globin RNA
  fold induction at 5000 µM: 1.3
[2]; K562 cells, 5 mM, 96 hours
  Raw Value, gamma globin RNA: 3.58 × 10^6
[2]; normalized to 28S ribosomal RNA, K562 cells, 5 mM, 96 hours
  Normalized Value, gamma globin RNA: 9.4 × 10^5
[3]
  cytotoxicity at 72 h, 5000 µM: ~100%
  viability at 122 h, 5000 µM: < 30%
[4]
  effect on cell viability within 24 hours (FIG. 7): negative effect on cell viability within 24 hours after treatment
[5]
  BA inducibility on promoter deletion to -108: markedly reduced the BA inducibility of the construct
  BA responsiveness on promoter deletion from -1260 to -140: did not significantly alter the responsiveness of the reporter construct to BA
[6]
  toxicity of high dosages: associated with toxicity, in particular neurologic toxicity
